This is an account of results in patent US20220339135A1, “COMPOSITIONS AND METHODS FOR MODULATING AN INFLAMMATORY RESPONSE” (Enzychem Lifesciences Corporation, priority 2019, published 2022).

One test has as its system IMQ-induced psoriasis. The experiment in a line: IMQ-induced psoriasis-like skin inflammation in mice. The format is in vivo. Particulars: PLAG 250 mg/kg/day orally, 5 days. From the text: Vaseline (Unilever, United Kingdom) was used as a control vehicle cream. […] Control (non-treated) and IMQ-treated groups were administrated orally with the same PBS daily. Psoriasis was scored by a blinded investigator using published criteria based on the following parameters: erythema, scaling, and thickening. […] The tissue sections were stained with hematoxylin and eosin (H&E). For IHC analyses, back skin serial sections were cut and mounted on charged glass slides (Superfrost Plus; Fisher Scientific, Rochester, N.Y., USA). The sections were deparaffinized and then treated with 3% hydrogen peroxide in methanol to quench the endogenous peroxidase activity. […] The sections were incubated with the primary anti-mouse IL-17 (abcam) antibody (1:100) or rat anti-mouse neutrophil (NIMP-R14, Thermo Fisher Scientific Inc.) antibody (1:100) at 4° C. overnight. […] On Day 5, mice were sacrificed and the isolated tissues were analyzed (FIG. 10A). On Day 5, mice were sacrificed and the isolated back skin tissues of control, IMQ treated and IMQ/PLAG co-treated mice were analyzed (FIG. 10B). […] The scoring of control, IMQ treated, and IMQ/PLAG co-treated mice calculated by a blinded investigator using published criteria based on the following parameters: erythema, scaling, and thickening (FIG. 10C). IMQ-treated back skin and one ear were isolated and skin thickness was measured (FIGS. 10D and 10E). […]

A further test deals with 5-FU-induced neutropenia. Put plainly: 5-FU-induced neutropenia in mice. The format is in vivo. Conditions: for Mean Duration of Neutropenia in Days (±SE, range) / Mean the First Day Neutropenia (ANC <500 cells/μL) (±SE, range): 5-FU 100 mg/kg. The method, then:
Male BALB/c mice (8 weeks of age) were randomly divided into 3 cohorts; control cohort (n=5), EC-18 125 mg/kg-treated cohort (n=5) and EC-18 250 mg/kg (n=5). The mice were intraperitoneally (i.p.) injected once with 100 mg/kg 5-FU to induce neutropenia, as shown in the experimental scheme (FIG. 46A). EC-18 was suspended in phosphate-buffered saline (PBS) and orally administrated at a dose of 125 or 250 mg/kg once a day, starting on the same day of 5-FU injection. The control cohort was administered PBS only during the experiment. The whole blood was collected from the orbital sinuses using EDTA-free capillary tubes (Kimble Chase Life Science and Research Products LLC, FL, USA) and collection tubes containing K3E-K3EDTA (Greiner Bio-One International, Kremsmünster, Austria). The blood cells were counted and classified by complete blood count (CBC) analysis using Mindray BC-5000 auto-hematology analyzer (Shenzhen Mindray Biomedical Electronics, Guangdong Sheng, China).
The results were expressed as the mean±standard deviation (SD). Statistical analysis was performed using a Student's paired t-test and p values <0.05 were considered statistically significant. A […] Log-rank (Mantel-Cox) test was used to compare the duration of neutropenia and time to recovery from neutropenia between control and EC-18-treated cohorts.

Test [1] has as its system PAK in LPL or GPIHBP-1 silenced cells. The experiment in a line: In vitro phagocytosis assay in LPL or GPIHBP-1 silenced cells. The format is cell-based. Conditions: 1 h after infection. The method, then:
For immunofluorescence-based measurement of phagocytosis and clearance, BMDMs were grown on glass coverslips in 24-well plates. The cells were infected with PAK (MOI, 50) for different time intervals and then were treated with 10 μg/ml gentamycin for 30 minutes to remove extracellular PAK attached to the cell surface. The infected cells were washed with ice-cold PBS several times, followed by fixing for 10 minutes at room temperature in methanol or 10% paraformaldehyde. The cells were stained with anti-Pseudomonas antibody (Abcam) and then were incubated with goat anti-rabbit IgG secondary antibody conjugated with Alexa Fluor 488. […]
For measurement of phagocytosis by flow cytometry, PAK was heat-killed and stained with 10 μM of SYTO9 (Thermo Scientific™) at room temperature for 30 minutes and then was extensively washed with ice-cold PBS several times. The staining dose of PAK was determined by flow cytometry. […] The fluorescence of extracellular PAK attached to the cell surface was quenched by replacing the medium with PBS containing 0.2% trypan blue.
For CFU counting-based phagocytosis and bacterial killing assay, PAK was cultured at 37° C. overnight with continuous shaking and was resuspended in PBS. […] The diluted aliquots were spread on LB agar plates, and CFU was counted after incubation of the plates overnight at 37° C.

Values joined by “and” are separate entries in the source; they are usually repeats but may differ in a detail not shown here. Equal entries are not always repeated. “Also recorded” adds a separate entry of the source.

Turning to `CCCCC/C=C\C/C=C\CCCCCCCC(=O)OC(COC(C)=O)COC(=O)CCCCCCCCCCCCCCC` (racemic) [PLAG, 1-palmitoyl-2-linoleoyl-3-acetylglycerol], in the test on IMQ-induced psoriasis, the IMQ-induced psoriasis symptoms result is “effectively resolved”. Also, in the test on 5-FU-induced neutropenia (EC-18 125 mg/kg), the “Mean Duration of Severe Neutropenia in Days (±SE, range)” value is reported as 2 (6-7) Days; the “Mean Number of Days to Recovery - ANC ≥ 500/μL (±SE, range)” value is recorded as 7.4 ± 0.55 (7-8) Days; the “Mean Number of Days to Recovery - ANC ≥ 1000/μL (±SE, range)” value was 8 ± 1.22 (7-10) Days; the “Number of Individuals of Severe Neutropenia (ANC <100 cells/μL)” value was 1/5. Besides, in the test with 5-FU-induced neutropenia (EC-18 125 mg/kg), the “Mean Duration of Neutropenia in Days (±SE, range)” value was 2.6 ± 0.55 (5-8) Days and the “Mean the First Day Neutropenia (ANC <500 cells/μL) (±SE, range)” value was 5.8 ± 0.45 (5-6) days. For the same molecule, the “Nadir of ANC” value in the test with 5-FU-induced neutropenia (EC-18 125 mg/kg, 125 mg/kg) was 236±4.47 cells/μL and 236 ± 121.57 cells/μL. In the test with 5-FU-induced neutropenia (EC-18 250 mg/kg), the “Mean Duration of Severe Neutropenia in Days (±SE, range)” value is listed as 2 (6-7) Days; the “Mean Number of Days to Recovery - ANC ≥ 500/μL (±SE, range)” value is on record as 7.6 ± 0.55 (7-8) Days; the “Mean Number of Days to Recovery - ANC ≥ 1000/μL (±SE, range)” value is reported as 8.8 ± 1.09 (7-10) Days; the “Number of Individuals of Severe Neutropenia (ANC <100 cells/μL)” value is on record as 1/5. In addition, in the test with 5-FU-induced neutropenia (EC-18 250 mg/kg), the “Mean Duration of Neutropenia in Days (±SE, range)” value is 3.0 ± 0.71 (5-8) Days and the “Mean the First Day Neutropenia (ANC <500 cells/μL) (±SE, range)” value is given as 5.8 ± 0.45 (5-6) days. For the same molecule, the “Nadir of ANC” value in the test with 5-FU-induced neutropenia (EC-18 250 mg/kg, 250 mg/kg) was determined as 158±11.32 cells/μL. In addition, the “time of recovery to an ANC≥500 or 1000 cells/μL” value in the test with 5-FU-induced neutropenia (EC-18 125 and 250 mg/kg-treated cohorts) is on record as “significantly reduced”. For the same molecule, the “5-FU-induced reduction of blood monocytes” value with 5-FU-induced neutropenia (EC-18 125 or 250mpk) is “remarkably mitigated”. Moreover, in the test on 5-FU-induced neutropenia (EC-18, dose not split in text), the “duration of severe neutropenia” value turned out to be 2 days. Also, in the test on 5-FU-induced neutropenia (both EC-18 125 and 250 mg/kg-treated cohorts), the “individuals that experienced severe neutropenia (ANC<100 cells/μL)” value was 20%. In addition, in test [1], the “PLAG effect on enhanced bacterial phagocytosis in silenced cells” value was “enhances neither phagocytosis nor bacterial killing; also recorded: abrogated”.
